The results in this text go back to US20260027073A1, “USE OF SMALL-MOLECULE COMPOUND HAVING NAPHTHYLAMINE STRUCTURE” (HANGZHOU PHECDAMED CO., LTD., priority 2023, published 2026).

In assay [1] the test system is Natural Aging POF model (NA-POF). Nature of the assay: Natural aging ovarian insufficiency (NA-POF). The note with it: for body weight / ovarian coefficient / ovarian weight: FIG. 71; for serum E2 levels: FIG. 73. The assay is classed as in vivo, C57BL/6J mice. As for the experimental part: The Natural Aging POF model (NA-POF) simulates conditions of progressive ovarian degeneration. Female C57BL/6J mice of 9-10 months of age were purchased and raised to 12 months old, and then the mice were randomly divided into three groups, namely, the control group (Control, 0.5% CMC-Na by oral gavage, n=8), the TJ01-013-treated group (TJ01-013, 30 mg/kg TJ01-013 by oral gavage, n=8), the I-14-1 treatment group (I-14-1, 30 mg/kg I-14-1 by oral gavage, n=8), and were administered daily for 30 days. At the endpoint of the experiment, body weight, ovarian weight, ovarian organ coefficient, serum hormone E2 and FSH levels in mice were measured. The body weight and bilateral ovarian wet weight of each group of mice were weighed with an electronic balance and an analytical balance respectively, and the ovarian organ coefficient of each group of mice was calculated according to the body weight of the mice (g) and the wet weight (mg) of the bilateral ovaries. […] After the experiment reached the end point, orbital blood collection was carried out, and the blood was centrifuged at 12000 g for 10 min after standing still at room temperature for 45 min, and the supernatant (serum) was taken, and the levels of E2 and FSH in serum were detected by ELISA.

Assay [2] relates to mice with renal ischemia-reperfusion. Nature of the assay: Unilateral renal ischemia-reperfusion acute kidney injury. The assay is classed as in vivo, C57BL/6 mice. As for the experimental part:
8-week-old C57BL/6 mice (weighing about 20-25 g) were injected intraperitoneally with 50 mg/kg sodium pentobarbital. After the mice were anesthetized, carried out preserved skin and placed on a thermostatic table, the skin and muscle of the right side were incised from the back and the right kidney was exposed, and the tissue around the pedicle of the kidney was stripped off with forceps to expose the blood vessels and the ureter. The arterial and venous blood vessels and the ureter were ligated with sutures. After removing the kidney, the muscle and skin were sutured with sutures and placed at 37° C. to wake it up, and after waking up, the mice were given […] of I-1. The experiments were divided into a sham group (exposing the right side of the kidney without removing it), a control group (giving solvent treatment by oral gavage), a 10 mg/kg group (10 mg/kg I-1 by oral gavage) and a 30 mg/kg group (30 mg/kg I-1 by oral gavage), with being administered once a day, and left kidney ischemia-reperfusion was performed on the sixth day, the specific plan was: mice were injected intraperitoneally with 50 mg/kg sodium pentobarbital, after anesthetizing, carried out preserved skin and placed on a thermostatic table, the skin and muscle of the left side were cut from the back and the left kidney was exposed, and the tissue around the pedicle of the kidney was stripped off with forceps to expose the blood vessels, and the arterial clip were used to tighten the blood vessel, after ischemia for 45 min, the arterial clip were released and the kidney tissue was returned to its place with a cotton swab, and finally the muscle and skin were sutured with a suture lines and the mice were placed at 37° C. to wake it up, and given another drug treatment after waking up. Blood was taken from the eyeball after 24 h of reperfusion, and the blood was centrifuged at 12000 g for 10 min at 4° C. after standing at room temperature for 45 min, and the supernatant (serum) was taken to detect the level of creatinine and urea nitrogen in the serum with a biochemical analyzer.
After blood extraction from the mouse eyeballs, cardiac perfusion was performed with PBS, after mice were anesthetized and fixed on a foam plate with a needle, the skin and ribs of the chest and abdomen were cut open to expose the heart, the injection needle was inserted into the left ventricle of mice and the pericardium was cut open at the same time, and the perfusion was performed with PBS at a speed of 7 rpm until the liver turned white and then the perfusion was stopped, the kidneys were taken out, and the renal peritoneum was removed, and the kidneys were put into 4% paraformaldehyde and fixed and immersed for 72 h. Subsequently, tissue embedding was carried out. Then tissue embedding, sectioning and HE staining were performed as follows:
Tissue was dewaxed after embedding and sectioning, and performed antigen repair, 5% goat serum sealing solution was added dropwise at 37° C. for 40 min, 50 μl of KIM-1 and caspase3 primary antibody (1:500) was added dropwise, overnight at 4° C.; after rewarming at 37° C. for 30 min, the tissue was washed by PBS four times, each time for 5 min. And then fluorescence secondary antibody was added dropwise for Ih, and the tissue was washed by PBS four times, each time for 5 min, finally, the tissue was stained by DAPI for 10 min, sealed with nail polish, and images were collected by cytation 3.

Setting [3] is: reperfusion 24 h, oral gavage 10 mg/kg and 30 mg/kg, FIG. 1.

`O=C(O)C[S+]([O-])c1cc(NS(=O)(=O)c2ccc(C(F)(F)F)cc2)c2ccccc2c1O` (stereo not shown) [I-14-1]: in assay [1] (30 mg/kg daily 30 days), the body weight entry is given as “no significant change”, the ovarian coefficient result is on record as “rising trend”, the ovarian weight entry is reported as “significantly elevated” and the “serum E2 levels” value is “increased significantly”.

`O=C(O)C[S+]([O-])c1cc(NS(=O)(=O)c2ccc(Br)cc2)c2ccccc2c1O` (stereo not shown) [I-1]: in assay [2] (FIG. 2), the “damage to renal tissues (HE staining)” value is recorded as “alleviated the damage to renal tissues”. Besides, in assay [2] (FIG. 3), the “KIM-1 level in renal tissue (immunostaining)” value is “inhibited” and the “cleaved-caspase3 level in renal tissue (immunostaining)” value is given as “inhibited”. Also, in assay [2] (setting [3]), the serum creatinine level entry is reported as “significantly reduced” and the “serum urea nitrogen level” value was “significantly reduced”. Further, in assay [1] (30 mg/kg daily 30 days), the body weight result is given as “no significant change”, the ovarian coefficient entry was “significantly elevated”, the ovarian weight entry is on record as “significantly elevated” and the “serum E2 levels” value is given as “increased significantly”. The “serum FSH level” value in assay [1] (30 mg/kg daily 30 days, FIG. 72) is “decreased significantly”. Moreover, the “improvement of ovarian function, TJ0113 compared with I-14-1” value in assay [1] (both 30 mg/kg) is given as “more effective”.

For the compound `O=C(O)CSc1cc(NS(=O)(=O)c2ccc(Br)cc2)c2ccccc2c1O` [UMI-77, reference compound], in assay [2] (UMI-77 group vs I-1), the “treatment of renal ischemia-reperfusion injury compared with I-1” value was “less effective”.
